# Measurements from paper PMC12136037, “Type II kinase inhibitors that target Parkinson’s disease–associated LRRK2” (Science Advances, 2025).
# Experiments:
# Assay in all cases: DSF 100 kinase selectivity screen;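 note: compound tested at 20 µM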
# Format in all cases: binding
# [1] = biological target: T1, ~100 representative kinases (Homo sapiens, UniProt Q12866); conditions: protein MERTK; average of three replicates
# T1 construct: Recombinant protein kinase domains with a concentration of 2 μM
# T1 sequence (Q12866 21-999): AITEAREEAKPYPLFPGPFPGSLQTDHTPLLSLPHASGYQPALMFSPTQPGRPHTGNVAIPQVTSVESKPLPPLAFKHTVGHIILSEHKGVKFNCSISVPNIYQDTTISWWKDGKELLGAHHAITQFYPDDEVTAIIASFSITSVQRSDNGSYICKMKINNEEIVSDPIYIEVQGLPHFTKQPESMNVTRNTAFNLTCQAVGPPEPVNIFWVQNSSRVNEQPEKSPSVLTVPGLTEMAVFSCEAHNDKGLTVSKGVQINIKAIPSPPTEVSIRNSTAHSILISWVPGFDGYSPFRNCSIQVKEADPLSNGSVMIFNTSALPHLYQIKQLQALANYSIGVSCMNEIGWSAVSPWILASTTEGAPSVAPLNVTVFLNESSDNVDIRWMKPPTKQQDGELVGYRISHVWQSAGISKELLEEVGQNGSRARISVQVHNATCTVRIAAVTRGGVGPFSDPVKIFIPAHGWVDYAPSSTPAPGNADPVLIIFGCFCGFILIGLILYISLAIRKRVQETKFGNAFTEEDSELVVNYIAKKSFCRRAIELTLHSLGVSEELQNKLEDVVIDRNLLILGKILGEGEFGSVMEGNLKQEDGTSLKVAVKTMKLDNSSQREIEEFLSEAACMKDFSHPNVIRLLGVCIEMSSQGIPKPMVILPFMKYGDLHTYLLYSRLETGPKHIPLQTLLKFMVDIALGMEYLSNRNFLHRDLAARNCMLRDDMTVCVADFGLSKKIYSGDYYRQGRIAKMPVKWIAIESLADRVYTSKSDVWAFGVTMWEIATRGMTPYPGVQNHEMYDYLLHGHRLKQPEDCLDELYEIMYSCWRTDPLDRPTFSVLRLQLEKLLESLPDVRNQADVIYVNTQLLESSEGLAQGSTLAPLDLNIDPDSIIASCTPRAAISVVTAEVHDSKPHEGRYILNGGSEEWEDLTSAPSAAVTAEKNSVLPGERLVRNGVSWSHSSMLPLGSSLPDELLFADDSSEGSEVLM
# Method in brief: (§1)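 Each kinase domain, at 2 μM, is mixed with 20 μM test compound and SYPRO Orange in Hepes (20 mM, pH 7.5) with 500 mM NaCl. Temperature is then raised at 3°C/min and fluorescence-monitored unfolding yields the melting temperature change, ΔTm in degrees Celsius.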
# [2] = biological target: T2, ~100 representative kinases (Homo sapiens, UniProt O00444); conditions: protein PLK4; average of three replicates
# T2 construct: Recombinant protein kinase domains with a concentration of 2 μM
# T2 sequence (O00444 1-970): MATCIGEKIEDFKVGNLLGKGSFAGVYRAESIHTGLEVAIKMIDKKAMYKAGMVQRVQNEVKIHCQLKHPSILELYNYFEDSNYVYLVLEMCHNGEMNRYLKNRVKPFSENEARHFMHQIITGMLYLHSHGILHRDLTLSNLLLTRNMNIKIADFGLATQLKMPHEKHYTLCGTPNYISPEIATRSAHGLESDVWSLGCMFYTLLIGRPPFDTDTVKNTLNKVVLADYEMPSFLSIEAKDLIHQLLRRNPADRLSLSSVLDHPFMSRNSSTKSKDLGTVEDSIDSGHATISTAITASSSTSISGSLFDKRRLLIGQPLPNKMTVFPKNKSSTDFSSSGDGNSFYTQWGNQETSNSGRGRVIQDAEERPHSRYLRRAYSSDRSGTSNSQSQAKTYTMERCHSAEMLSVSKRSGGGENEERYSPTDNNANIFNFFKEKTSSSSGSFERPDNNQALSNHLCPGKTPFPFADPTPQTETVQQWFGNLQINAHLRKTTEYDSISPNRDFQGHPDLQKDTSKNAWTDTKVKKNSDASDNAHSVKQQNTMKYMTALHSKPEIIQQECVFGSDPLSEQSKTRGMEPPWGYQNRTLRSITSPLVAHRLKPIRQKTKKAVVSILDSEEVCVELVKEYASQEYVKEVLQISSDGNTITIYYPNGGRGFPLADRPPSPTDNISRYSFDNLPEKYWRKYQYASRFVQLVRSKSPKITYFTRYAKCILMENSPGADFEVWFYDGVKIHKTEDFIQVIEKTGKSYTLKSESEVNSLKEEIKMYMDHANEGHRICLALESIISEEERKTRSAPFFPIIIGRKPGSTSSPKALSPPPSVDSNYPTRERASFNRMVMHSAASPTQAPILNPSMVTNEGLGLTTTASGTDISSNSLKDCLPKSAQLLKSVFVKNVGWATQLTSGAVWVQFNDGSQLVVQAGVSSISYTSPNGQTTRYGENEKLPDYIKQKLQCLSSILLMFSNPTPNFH
# Method in brief: as §1
# [3] = biological target: T3, ~100 representative kinases (Homo sapiens, UniProt Q9Y243); conditions: Protein AKT3; average of three replicates
# T3 construct: Recombinant protein kinase domains with a concentration of 2 μM
# Method in brief: as §1
# [4] = biological target: T4, ~100 representative kinases (Homo sapiens, UniProt Q99640); conditions: protein PKMYT1; average of three replicates
# T4 construct: Recombinant protein kinase domains with a concentration of 2 μM
# T4 sequence (Q99640 1-499): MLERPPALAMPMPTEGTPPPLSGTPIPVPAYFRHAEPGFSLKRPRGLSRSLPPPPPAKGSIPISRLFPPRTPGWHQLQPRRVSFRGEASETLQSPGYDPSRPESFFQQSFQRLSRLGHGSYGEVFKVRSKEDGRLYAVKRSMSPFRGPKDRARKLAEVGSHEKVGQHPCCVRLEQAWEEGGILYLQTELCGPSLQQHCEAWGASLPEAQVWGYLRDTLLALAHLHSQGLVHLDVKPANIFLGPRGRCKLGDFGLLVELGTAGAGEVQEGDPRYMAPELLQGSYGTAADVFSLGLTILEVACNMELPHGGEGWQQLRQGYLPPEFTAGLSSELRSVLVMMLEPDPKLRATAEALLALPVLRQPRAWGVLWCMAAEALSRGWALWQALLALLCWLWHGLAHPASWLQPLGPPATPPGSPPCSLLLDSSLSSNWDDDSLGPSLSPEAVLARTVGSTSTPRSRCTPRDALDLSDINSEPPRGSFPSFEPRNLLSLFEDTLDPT
# Method in brief: as §1
# T3 sequence (Q9Y243 whole entry, the tested form may be a part): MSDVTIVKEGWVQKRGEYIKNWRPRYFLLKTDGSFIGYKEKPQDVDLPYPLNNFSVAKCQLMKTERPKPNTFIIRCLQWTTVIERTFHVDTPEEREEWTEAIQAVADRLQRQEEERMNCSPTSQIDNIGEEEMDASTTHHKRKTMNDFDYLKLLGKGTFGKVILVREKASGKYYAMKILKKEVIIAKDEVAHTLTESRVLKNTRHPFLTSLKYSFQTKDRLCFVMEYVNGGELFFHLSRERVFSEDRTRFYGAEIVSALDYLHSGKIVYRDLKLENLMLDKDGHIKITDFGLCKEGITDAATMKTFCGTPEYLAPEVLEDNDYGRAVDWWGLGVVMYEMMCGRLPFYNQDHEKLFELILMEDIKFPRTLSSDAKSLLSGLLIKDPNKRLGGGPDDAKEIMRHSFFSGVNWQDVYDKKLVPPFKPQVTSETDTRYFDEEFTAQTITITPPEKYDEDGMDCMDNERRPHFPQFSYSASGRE
Compound,dTm [1] [K],dTm [2] [K],dTm [3] [K],dTm [4] [K]
Cc1ccc(-n2nc(C(C)(C)C)cc2NC(=O)Nc2cccc(-c3c[nH]c4ncnc(N5CCOCC5)c34)c2)cc1 [Compound 29],2.79,4.74,0.14,-0.41
Cc1ccc(-n2nc(C(C)(C)C)cc2NC(=O)Nc2cccc(-c3c[nH]c4nc(Cl)nc(N5CCOCC5)c34)c2)cc1 [Compound 30],-1.91,0.26,-0.99,-0.62
CC(=O)N1CCN(c2nc(Cl)nc3[nH]cc(-c4cccc(NC(=O)Nc5cc(C(C)(C)C)nn5-c5ccc(C)cc5)c4)c23)CC1 [Compound 31],0.10,0.19,-0.49,-0.30
CCSc1nc(NC)c2c(-c3cccc(NC(=O)Nc4cc(C(C)(C)C)nn4-c4ccc(C)cc4)c3)c[nH]c2n1 [Compound 32],0.0365,0.48,0.30,0.22
COc1cc(C(=O)N2CCOCC2)c(F)cc1Nc1nc(N(C)C)c2c(Cl)c[nH]c2n1 [Compound 36],-0.62,10.15,0.29,-0.59
COc1cc(S(C)(=O)=O)ccc1Nc1nc(N(C)C)c2c(Cl)c[nH]c2n1 [Compound 37],-0.61,4.57,-0.25,-0.22
"COc1cc2c(Oc3ccc(NC(=O)C4(C(=O)Nc5ccc(F)cc5)CC4)cc3F)ccnc2cc1OCCCN1CCOCC1 [Foretinib, reference compound]",13.18,16.61,-0.34,0.92
CCNc1nc(Nc2cc(F)c(C(=O)N3CCOCC3)cc2OC)ncc1C(F)(F)F [GNE-7915],2.33,1.52,-0.31,-0.40
"Cc1ccc(C(=O)Nc2ccc(CN3CCN(C)CC3)c(C(F)(F)F)c2)cc1C#Cc1cnc2[nH]ncc2c1 [GZD-824, reference compound]",5.77,2.97,-0.88,0.44
C[C@@H]1CN(c2cc(-c3n[nH]c4ccc(OC5(C)CC5)cc34)ncn2)C[C@H](C)O1 [MLi2],0.0155,3.07,-0.44,-0.55
Cn1cc(-c2c[nH]c3ncnc(N4CCOCC4)c23)cc1C#N [PFE-360],0.31,4.43,-0.26,0.19
